Assays:
ocular structures [1] = conditions: prior-art dyes, general statement; cited from earlier work
trabecular meshwork = test: Marking of the trabecular meshwork with trypan blue before laser treatment in glaucoma; assay type: in vivo; conditions: Patient C
Excerpt: Eye pressure is regulated in part by flow of ocular fluid (aqueous humour) through a biological valve, known as the trabecular meshwork. In glaucoma, a pathological condition where the eye pressure is raised, the eye pressure may be lowered by application of a laser energy source to the trabecular meshwork. In the prior art the success of this technique generally depends upon the presence of sufficient natural pigmentation of the trabecular meshwork which will absorb the laser energy. Using trypan blue to mark the trabecular meshwork improves identification of this structure, and the uptake of laser energy. A trypan blue solution is instilled into the eye in the location of the trabecular meshwork, and after a short time period such as from 10 seconds to one minute, the trypan blue solution is removed and the area generally irrigated to remove excess trypan blue. The now marked trabecular meshwork can be readily visually distinguished, and laser application can take place. Other ocular structures may be marked in the same manner so as to enable identification and if necessary surgical or other treatment.
Patient C is a glaucoma sufferer who has elevated eye pressure. 0.1% trypan blue is instilled into the eye of patient C through a cannular, introducing the trypan blue solution in the area with trabecular meshwork.

[2] = system: epiretinal and internal limiting membrane of the retina; test: Staining of the inner limiting membrane with trypan blue solution during pars plana vitrectomy; assay type: in vivo, patient; conditions: 0.1% w/w in physiological saline, instilled, left for 30 seconds, aspirated and irrigated; Patients A and B
Excerpt: In respect of retinal surgery for the removal of aberrant membranes or for the peeling of epiretinal and internal limiting membranes of the retina, the vitreous gel of the eye is removed by a technique known as pars plana vitrectomy, with stripping of the outer (cortical) vitreous. In place of the vitreous gel, infusion fluid is introduced into the eye via an infusion port. The inner limiting membrane may then be stained with trypan blue solution (for example 0.1% w/w) instilled with a fine silicone-tipped extrusion needle, left for 30 seconds to stain the membrane, aspirated, followed by irrigation of the area with balanced salt (physiological) solution. Peeling of the membrane proceeds and is greatly facilitated because of improved visualization of the extent of the membrane. The procedure is then completed in standard fashion with fluid-gas exchange.
Patient A required peeling of epiretinal and internal limiting membrane of the retina as part of the surgical management of premacular fibrosis and macular hole conditions.
Patient B is a diabetic suffering from severe diabetic retinopathy, with proliferative vitreo retinopathy.
A 0.1% w/w solution of trypan blue in physiological saline is prepared.
In each patient the vitreous gel of the eye is removed by pars plana vitrectomy an established procedure in the art, which involves stripping of the outer (cortical) vitreous. […]

ocular structures [3] = test: Toxicity and permanence of staining of dyes used in the eye; conditions: trypan blue, general statement
Excerpt: A number of dyes have been used in the eye to identify vital structures, examples of dyes used include indocyanin green, rose bengal, gentian violet and methylene blue.

O=C([O-])c1c(Cl)c(Cl)c(Cl)c(Cl)c1-c1c2cc(I)c(=O)c(I)c-2oc2c(I)c([O-])c(I)cc12.[Na+].[Na+] [rose bengal]
toxicity to ocular structures (ocular structures [1]): toxic to ocular structures

CN(C)c1ccc(C(=C2C=CC(=[N+](C)C)C=C2)c2ccc(N(C)C)cc2)cc1 [gentian violet]
toxicity to ocular structures (ocular structures [1]): toxic to ocular structures

CC1(C)C(/C=C/C=C/C=C/C=C2\N(CCCCS(=O)(=O)[O-])c3ccc4ccccc4c3C2(C)C)=[N+](CCCCS(=O)(=O)[O-])c2ccc3ccccc3c21.[Na+] [indocyanin green]
toxicity to ocular structures (ocular structures [1]): toxic to ocular structures

CN(C)c1ccc2nc3ccc(=[N+](C)C)cc-3sc2c1 [methylene blue]
toxicity to ocular structures (ocular structures [1]): toxic to ocular structures

Cc1cc(-c2ccc(/N=N/c3c(S(=O)(=O)O)cc4cc(S(=O)(=O)O)cc(N)c4c3O)c(C)c2)ccc1/N=N/c1c(S(=O)(=O)O)cc2cc(S(=O)(=O)O)cc(N)c2c1O [trypan blue]
visualization of the trabecular meshwork (trabecular meshwork; 0.1% trypan blue instilled through a cannular, glaucoma): visualized by simple visual identification
eye pressure after laser treatment (trabecular meshwork; 0.1% trypan blue marking followed by laser light, elevated eye pressure): Successful lowering of eye pressure
uptake of laser energy (trabecular meshwork; 0.1% trypan blue, after irrigation, area subject to laser light): improving uptake of laser energy
visual identification of membranes after staining [2]: readily identified
reversibility of staining of eye structures (ocular structures [3]): does not irreversibly stain eye structures
toxicity in the eye (ocular structures [3]): non-toxic

Source: patent US6372449B1, “Opthalmic methods and uses” (priority 1999, dated 2002)
